Measured values published in article PMC11249646, “Small-Molecule Disruptors of the Interaction between Calcium- and Integrin-Binding Protein 1 and Integrin αIIbβ3 as Novel Antiplatelet Agents” (ACS Pharmacology & Translational Science, 2024).
Where two headings read alike, the source gives them in different places.

Legend:
[1] = biological target: T1, CIB1 and αIIb interaction (CIB1-GST : F-αIIb peptide) (Homo sapiens, UniProt Q99828); assay: FP assay, 1536-well qHTS format (primary and confirmatory screen); format: binding; conditions: for CONFIRMATORY SCREEN Curve Class / Curve Class (confirmatory screen): qHTS curve class
T1 construct: made in house; host or cells: BL-21 plus RIL cells (E. coli)
T1 sequence (Q99828 1-191): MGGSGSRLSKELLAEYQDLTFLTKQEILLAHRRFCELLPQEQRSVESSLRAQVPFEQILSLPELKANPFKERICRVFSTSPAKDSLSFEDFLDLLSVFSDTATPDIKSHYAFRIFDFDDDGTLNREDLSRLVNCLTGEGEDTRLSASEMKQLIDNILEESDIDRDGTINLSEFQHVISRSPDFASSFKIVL

[2] = biological target: T2, GST-CIB1 : F-scrambled peptide (Homo sapiens, UniProt Q99828); assay: FP scrambled-peptide counter screen, 1536-well format; format: binding; conditions: for COUNTERSCREEN Curve Class / Curve Class (counterscreen): qHTS curve class; for IC50: read-out: IC50 [μM] (counterscreen)
T2 construct: made in house; host or cells: BL-21 plus RIL cells (E. coli)
T2 sequence (Q99828 1-191): T1 sequence (Q99828 1-191)

[3] = qHTS FP screen hits, Table S2, negative = inhibition
[4] = qHTS FP screen hits, Table S2, one class per curve where COUNT > 1, negative sign = inhibitory curve
[5] = qHTS FP screen hits, Table S2, read-out: IC50
[6] = Table S3, confirmatory screen, a negative sign marks inhibitory curves
[7] = Table S3, confirmatory screen, negative = inhibition
[8] = qHTS primary screen hits, Table S2, negative = inhibition
[9] = qHTS primary screen hits, Table S2, negative sign = inhibitory curve, several classes where COUNT > 1
[10] = qHTS primary screen hits, Table S2, read-out: IC50
[11] = Table S3, counterscreen, a negative sign marks inhibitory curves
[12] = Table S3, counterscreen, negative = inhibition
[13] = confirmatory screen, negative sign = inhibitory curve
[14] = confirmatory screen, read-out: IC50 [μM] (confirmatory screen)
[15] = counterscreen, negative sign = inhibitory curve

Row | SMILES | CONFIRMATORY SCREEN Efficacy (%) ([1]; confirmatory screen) | CONFIRMATORY SCREEN Curve Class ([1]; confirmatory screen) | Efficacy (%) [1, 3] [%] | IC50 [1, 5] [µM] | COUNTERSCREEN Efficacy (%) ([2]; counterscreen) | COUNTERSCREEN Curve Class ([2]; counterscreen) | Efficacy (%) [1, 8] [%] | IC50 [1, 10] [µM] | Efficacy (%) (confirmatory screen) ([1]; confirmatory screen) | Confirm? (confirmatory screen) ([1]; confirmatory screen, YES/NO) | Curve Class (confirmatory screen) [1, 13] | IC50 [1, 14] [µM] | Efficacy (%) (counterscreen) ([2]; counterscreen) | Curve Class (counterscreen) [2, 15] | other results
1 | CCOc1ccc(CCNC(C)=O)cc1OCC.O=C(O)C(F)(F)F [NCGC00241413-01] | -11 | 4 | -45 | 39.8 | 0 | 4 |  |  |  |  |  |  |  |  | Curve Class [1, 4]: -2.2
2 | CCOc1ccc(CCNC(=O)c2ccc(N3N=C(C)CC3=O)cc2)cc1OCC.O=C(O)C(F)(F)F [NCGC00241439-01] |  |  |  |  |  |  | -42 | 22.4 |  |  |  |  |  |  | Curve Class (confirmatory screen) [1, 6]: 4; Efficacy (%) (confirmatory screen) [1, 7]: -41%; Curve Class [1, 9]: -1.2; Curve Class (counterscreen) [2, 11]: 4; Efficacy (%) (counterscreen) [2, 12]: -33%
3 | CN(C(=O)c1cccs1)c1cccnc1.O=C(O)C(F)(F)F [NCGC00241518-01] |  |  | -77 | 50.1 |  |  |  |  |  |  |  |  |  |  | Confirm? (confirmatory screen) ([1]; Table S3, confirmatory screen, YES/NO call): YES; Curve Class (confirmatory screen) [1, 6]: -1.1; Efficacy (%) (confirmatory screen) [1, 7]: -90%; IC50 ([1]; Table S3, confirmatory screen, read-out: IC50 [μM] (confirmatory screen)): 31.6 µM; Curve Class [1, 4]: -2.2; Curve Class (counterscreen) [2, 11]: -2.1; Efficacy (%) (counterscreen) [2, 12]: -118%; IC50 ([2]; Table S3, counterscreen): 44.7 µM
4 | CCN1C(=O)c2ccccc2[S+]([O-])c2ccc(C(=O)Nc3ncc(C)s3)cc21 (stereo not shown) [NCGC00241655-01] | -10 | 4 |  |  | -33 | 4 | -23 | 39.8 |  |  |  |  |  |  | Curve Class [1, 9]: -2.4
5 | CCN1C(=O)c2ccccc2[S+]([O-])c2ccc(C(=O)NCc3cccc(F)c3)cc21 (stereo not shown) [NCGC00241657-01] |  |  |  |  |  |  | -70 | 39.8 | -68 | YES | -2.2 | 50.1 | -26 | -1.4 | Curve Class ([1]; qHTS primary screen hits, Table S2, negative sign = inhibitory curve): -2.2; Confirm? (counterscreen) ([2]; counterscreen, YES/NO): YES; IC50 ([2]; counterscreen): 35.5 µM
6 | Fc1ccc(NC(=S)Nc2nnc(-c3ccncc3)s2)cc1C(F)(F)F.O=C(O)C(F)(F)F [NCGC00241743-01] | -35 | 4 | -41 | 22.4 | 39 | 4 |  |  |  |  |  |  |  |  | Curve Class [1, 4]: -2.2
7 | O=C(O)C(F)(F)F.O=C(O)c1ccc(O)c2ncc(N3CCC(N4CCOCC4)C3)cc12 (stereo not shown) [NCGC00241757-01] | -17 | 4 | -22 | 35.5 | -21 | 4 |  |  |  |  |  |  |  |  | 
8 | O=C(O)C(F)(F)F.O=C(O)c1ccc(O)c2ncc(-c3n[nH]nc3-c3ccccc3)cc12 [NCGC00241764-01] |  |  | -21 | 28.2 |  |  |  |  | -23 | YES | -1.4 | 39.8 | -33 | 4 | Confirm? (counterscreen) ([2]; counterscreen, YES/NO): YES
9 | CC1=C[C@@H]2[C@H]([C@@H](O)C[C@@]3(C)[C@H]2C[C@@H](C)[C@]3(O)C(=O)CO)[C@@]2(C)Cc3cnn(-c4ccccc4)c3C=C12 [NCGC00242505-01] |  |  |  |  |  |  | -30 | 37.6 | -46 | YES | -1.4 | 15.8 | -41 | -1.2 | IC50 ([2]; counterscreen): 12.6 µM
10 | CCOC(=O)C1CCN(C(=O)C(C)(C)NC(=O)Nc2ccc(C#N)cc2)CC1.O=C(O)C(F)(F)F [NCGC00242565-01] |  |  | -22 | 2.2 |  |  |  |  | -28 | YES | -1.4 | 7.9 | -30 | -1.4 | IC50 ([2]; counterscreen): 15.8 µM
11 | CC(C)c1ccc(NC(=S)N/N=C2\C(=O)Nc3ccccc32)cc1.O=C(O)C(F)(F)F [NCGC00242646-01] |  |  |  |  |  |  | -16 | 10 |  |  |  |  |  |  | Curve Class (confirmatory screen) [1, 6]: 4; Efficacy (%) (confirmatory screen) [1, 7]: -28%; Curve Class [1, 9]: -1.4; Confirm? (counterscreen) ([2]; Table S3, counterscreen, YES/NO call): YES; Curve Class (counterscreen) [2, 11]: -1.2; Efficacy (%) (counterscreen) [2, 12]: -36%; IC50 ([2]; Table S3, counterscreen): 12.6 µM
